From ChEMBL document CHEMBL5584307, “Discovery of a Potent and Orally Bioavailable Xanthine Oxidase/Urate Transporter 1 Dual Inhibitor as a Potential Treatment for Hyperuricemia and Gout” (J Med Chem, 2024)

Columns and labels:
[1] = Toxicity in rat assessed as decrease in body weight at 120 mg/kg/day for 28 days; type: organism-based; conditions: in vivo, 672 h, time 28 day
[2] = Cmax in Beagle dog at 5 mg/kg, po measured upto 24 hrs by LC-MS/MS analysis; type: ADME, organism-based, Canis lupus familiaris; conditions: in vivo
[3] = Half life in Tufted capuchin monkey at 30 mg/kg, po measured for 24 hrs by LC-MS/MS analysis; type: ADME, organism-based; conditions: sapajus apella, in vivo
[4] = biological target: T1, Cytochrome P450 2C8 (Homo sapiens, UniProt P10632); test: Inhibition of CYP2C8 in human liver microsomes in presence of NADPH by LC-MS/MS analysis; type: ADME, Microsome
T1 sequence (P10632 whole entry): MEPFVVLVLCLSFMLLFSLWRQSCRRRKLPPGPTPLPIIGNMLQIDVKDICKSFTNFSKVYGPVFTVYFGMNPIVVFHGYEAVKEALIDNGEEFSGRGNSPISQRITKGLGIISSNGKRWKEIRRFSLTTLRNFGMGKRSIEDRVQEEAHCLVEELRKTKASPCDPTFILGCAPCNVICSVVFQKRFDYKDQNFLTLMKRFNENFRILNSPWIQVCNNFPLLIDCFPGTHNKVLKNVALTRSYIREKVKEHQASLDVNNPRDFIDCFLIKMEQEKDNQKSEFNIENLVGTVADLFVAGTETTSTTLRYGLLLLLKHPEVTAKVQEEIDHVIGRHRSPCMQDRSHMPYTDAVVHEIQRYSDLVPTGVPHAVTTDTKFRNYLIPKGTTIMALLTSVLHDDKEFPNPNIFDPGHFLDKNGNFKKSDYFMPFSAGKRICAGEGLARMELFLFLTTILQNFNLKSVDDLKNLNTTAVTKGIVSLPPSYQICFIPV

[5] = Toxicity in rat assessed as decrease in food consumption at 60 to 120 mg/kg/day for 28 days; type: organism-based; conditions: in vivo, 672 h, dose 60-120 mg/kg/day, time 28 day
[6] = test system: Sapajus apella; conditions: dose 30.0 mg/kg/day, route po, time 3.0 day
[7] = Genotoxicity in Salmonella typhimurium TA1535 by Ames test; type: toxicity; conditions: salmonella enterica subsp. enterica serovar typhimurium
[8] = biological target: T2, Cytochrome P450 3A4 (Homo sapiens, UniProt P08684); test: Induction of CYP3A4 in human hepatocytes at 50 uM incubated for 48 hrs with media containing compound renewal every 24 hrs followed by substrate addition measured after 30 mins by LC-MS/MS analysis; type: ADME, cell-based, Hepatocyte; conditions: 48.5 h
[9] = Cmax in Cynomolgous monkey at 5 mg/kg, po measured upto 24 hrs by LC-MS/MS analysis; type: ADME, organism-based, Macaca fascicularis; conditions: cynomolgus monkey, in vivo
[10] = Half life in Beagle dog at 5 mg/kg, po measured upto 24 hrs by LC-MS/MS analysis; type: ADME, organism-based, Canis lupus familiaris; conditions: in vivo
[11] = biological target: Voltage-gated inwardly rectifying potassium channel KCNH2 (Homo sapiens, UniProt Q12809); test: Inhibition of hERG by electrophysiology; type: toxicity
[12] = Toxicity in Sprague-Dawley rat assessed as development-limiting effect; conditions: in vivo
[13] = Ratio of drug concentration in Sprague-Dawley rat liver to plasma at 3 mg/kg, po measured for 24 hrs by LC-MS/MS analysis; type: ADME, organism-based; conditions: liver and plasma
[14] = Tmax in Tufted capuchin monkey at 100 mg/kg, po measured for 24 hrs by LC-MS/MS analysis; type: ADME, organism-based; conditions: sapajus apella, in vivo
[15] = Genotoxicity in Salmonella typhimurium TA98 by Ames test; type: toxicity; conditions: salmonella enterica subsp. enterica serovar typhimurium
[16] = Toxicity in rat assessed as acute inflammation in pylorus at 120 mg/kg/day for 28 days by H and E staining based analysis; type: organism-based; conditions: in vivo, 672 h, time 28 day
[17] = AUC (last) in overnight-fasted Sprague-Dawley rat at 5 mg/kg, po measured upto 24 hrs by LC-MS/MS analysis; type: ADME, organism-based; conditions: in vivo
[18] = Volume of distribution at steady state in overnight-fasted Sprague-Dawley rat at 5 mg/kg, po or 1 mg/kg, iv measured upto 24 hrs by LC-MS/MS analysis; type: ADME, organism-based; conditions: in vivo
[19] = test system: Sapajus apella; conditions: dose 100.0 mg/kg/day, route po, time 3.0 day
[20] = biological target: Cytochrome P450 2C9 (Homo sapiens, UniProt P11712); test: Inhibition of CYP2C9 in human liver microsomes in presence of NADPH by LC-MS/MS analysis; type: ADME, Microsome
[21] = Cmax in overnight-fasted Sprague-Dawley rat at 5 mg/kg, po measured upto 24 hrs by LC-MS/MS analysis; type: ADME, organism-based; conditions: in vivo
[22] = Toxicity in rat assessed as single-cellular necrosis of mucosal epithelium in colon at 120 mg/kg/day for 28 days by H and E staining based analysis; type: organism-based; conditions: in vivo, 672 h, time 28 day
[23] = Toxicity in cynomolgous monkey assessed as development-limiting effect; design: species or system Macaca fascicularis; conditions: cynomolgus monkey, in vivo
[24] = Half life in overnight-fasted Sprague-Dawley rat at 5 mg/kg, po measured upto 24 hrs by LC-MS/MS analysis; type: ADME, organism-based; conditions: in vivo
[25] = Toxicity in monkey; design: species or system Macaca mulatta; conditions: rhesus monkey, in vivo
[26] = Cmax in Tufted capuchin monkey at 100 mg/kg, po measured for 24 hrs by LC-MS/MS analysis; type: ADME, organism-based; conditions: sapajus apella, in vivo
[27] = Genotoxicity in Salmonella typhimurium TA97 by Ames test; type: toxicity; conditions: salmonella enterica subsp. enterica serovar typhimurium
[28] = biological target: T2, Cytochrome P450 3A4; test: Inhibition of CYP3A4 in human liver microsomes in presence of NADPH by LC-MS/MS analysis; type: ADME, Microsome
[29] = Stability in dog liver microsomes assessed as half life at 1 uM measured upto 60 mins in presence of NADPH by LC-MS/MS analysis; type: ADME, Canis lupus familiaris, Microsome
[30] = biological target: T3, Solute carrier family 22 member 12 (Homo sapiens, UniProt Q96S37); test: Inhibition of URAT1 (unknown origin) by absorbance based assay
T3 sequence (Q96S37 whole entry): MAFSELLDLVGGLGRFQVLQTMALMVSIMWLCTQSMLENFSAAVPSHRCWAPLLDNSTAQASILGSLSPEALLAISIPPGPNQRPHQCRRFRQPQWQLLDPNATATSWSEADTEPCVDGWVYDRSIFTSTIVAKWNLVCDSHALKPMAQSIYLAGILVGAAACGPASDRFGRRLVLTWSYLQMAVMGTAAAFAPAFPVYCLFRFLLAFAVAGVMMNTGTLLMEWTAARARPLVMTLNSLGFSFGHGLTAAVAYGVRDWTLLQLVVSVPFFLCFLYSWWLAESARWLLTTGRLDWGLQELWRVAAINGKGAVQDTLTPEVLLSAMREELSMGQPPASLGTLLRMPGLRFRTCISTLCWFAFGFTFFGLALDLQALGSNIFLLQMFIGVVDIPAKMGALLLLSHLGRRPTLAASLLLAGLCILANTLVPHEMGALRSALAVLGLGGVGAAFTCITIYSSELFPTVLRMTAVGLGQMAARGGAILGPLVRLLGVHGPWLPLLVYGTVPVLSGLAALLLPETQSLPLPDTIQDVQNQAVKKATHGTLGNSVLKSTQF

[31] = Toxicity in rat assessed as increase in liver weight at 60 to 120 mg/kg/day for 28 days; type: organism-based; conditions: in vivo, 672 h, dose 60-120 mg/kg/day, time 28 day
[32] = Toxicity in rat assessed as diffuse hepatocytes hypertrophy at 120 mg/kg/day for 28 days by H and E staining based analysis; type: organism-based; conditions: in vivo, 672 h, time 28 day

T2 sequence (P08684 whole entry): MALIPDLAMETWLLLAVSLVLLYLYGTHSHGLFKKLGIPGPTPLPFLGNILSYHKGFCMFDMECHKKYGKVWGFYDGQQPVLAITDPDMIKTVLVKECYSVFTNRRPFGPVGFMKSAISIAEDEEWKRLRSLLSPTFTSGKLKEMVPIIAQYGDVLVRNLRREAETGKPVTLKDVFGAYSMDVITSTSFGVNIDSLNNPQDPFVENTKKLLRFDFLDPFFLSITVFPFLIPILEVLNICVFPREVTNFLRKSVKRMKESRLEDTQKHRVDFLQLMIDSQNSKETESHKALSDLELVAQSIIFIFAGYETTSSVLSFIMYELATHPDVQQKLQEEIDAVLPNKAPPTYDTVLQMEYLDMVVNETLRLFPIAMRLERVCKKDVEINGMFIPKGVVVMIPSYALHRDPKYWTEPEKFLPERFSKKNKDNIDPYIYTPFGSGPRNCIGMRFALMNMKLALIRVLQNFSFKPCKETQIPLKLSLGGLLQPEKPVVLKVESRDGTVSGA
Sequence of Voltage-gated inwardly rectifying potassium channel KCNH2 (Q12809 whole entry): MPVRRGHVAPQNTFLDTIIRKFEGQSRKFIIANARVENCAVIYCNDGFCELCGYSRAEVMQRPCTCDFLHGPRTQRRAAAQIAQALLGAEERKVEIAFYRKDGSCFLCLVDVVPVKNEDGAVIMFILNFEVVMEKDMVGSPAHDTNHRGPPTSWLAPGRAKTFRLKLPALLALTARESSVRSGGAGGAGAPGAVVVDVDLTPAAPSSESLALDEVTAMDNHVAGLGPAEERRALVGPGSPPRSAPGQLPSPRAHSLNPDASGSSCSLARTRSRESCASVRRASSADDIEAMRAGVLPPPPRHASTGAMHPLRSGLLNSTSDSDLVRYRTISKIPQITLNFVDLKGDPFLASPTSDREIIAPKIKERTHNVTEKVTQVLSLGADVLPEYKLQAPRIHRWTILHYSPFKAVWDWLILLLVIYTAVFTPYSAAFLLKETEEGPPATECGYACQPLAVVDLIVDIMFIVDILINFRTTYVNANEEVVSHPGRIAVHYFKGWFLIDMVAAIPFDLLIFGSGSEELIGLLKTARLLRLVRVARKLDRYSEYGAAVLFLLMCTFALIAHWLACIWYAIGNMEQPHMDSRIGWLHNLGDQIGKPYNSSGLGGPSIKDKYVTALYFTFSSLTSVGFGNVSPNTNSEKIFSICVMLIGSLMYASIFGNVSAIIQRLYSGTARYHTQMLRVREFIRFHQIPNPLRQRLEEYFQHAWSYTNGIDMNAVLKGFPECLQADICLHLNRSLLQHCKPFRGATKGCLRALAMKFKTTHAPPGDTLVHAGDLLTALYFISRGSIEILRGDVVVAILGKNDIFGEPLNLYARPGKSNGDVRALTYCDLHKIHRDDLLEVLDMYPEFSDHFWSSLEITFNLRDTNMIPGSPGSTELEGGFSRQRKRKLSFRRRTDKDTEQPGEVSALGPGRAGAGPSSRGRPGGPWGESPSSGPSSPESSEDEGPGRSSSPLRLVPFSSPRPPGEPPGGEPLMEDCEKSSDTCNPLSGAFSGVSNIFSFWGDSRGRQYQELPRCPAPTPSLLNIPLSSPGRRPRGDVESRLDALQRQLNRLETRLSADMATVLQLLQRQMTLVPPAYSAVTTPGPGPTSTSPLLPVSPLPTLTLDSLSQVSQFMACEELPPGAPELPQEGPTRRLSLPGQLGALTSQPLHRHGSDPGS
Sequence of Cytochrome P450 2C9 (P11712 whole entry): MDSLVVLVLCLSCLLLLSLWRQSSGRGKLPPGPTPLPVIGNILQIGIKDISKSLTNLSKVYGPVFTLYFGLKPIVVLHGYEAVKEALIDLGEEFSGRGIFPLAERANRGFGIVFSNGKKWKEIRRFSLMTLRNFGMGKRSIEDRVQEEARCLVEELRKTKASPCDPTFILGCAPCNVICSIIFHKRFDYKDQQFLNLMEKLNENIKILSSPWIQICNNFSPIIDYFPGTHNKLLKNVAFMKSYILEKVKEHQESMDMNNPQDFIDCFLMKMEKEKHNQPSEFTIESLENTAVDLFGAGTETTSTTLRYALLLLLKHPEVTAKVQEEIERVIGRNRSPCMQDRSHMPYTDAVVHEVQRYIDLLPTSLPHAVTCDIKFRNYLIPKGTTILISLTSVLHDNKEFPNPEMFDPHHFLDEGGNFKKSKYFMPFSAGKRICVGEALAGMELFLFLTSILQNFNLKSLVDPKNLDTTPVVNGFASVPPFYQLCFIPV

In the case of `N#Cc1cc(-c2ccc(C(=O)O)c(O)c2)c2oc(F)cc2c1`, the Activity [1] is reported as “Toxic”, the Cmax [2] is reported as 2530 ng/mL and the half-life [3] is reported as 3.1 h. The IC50 [4] was 12.2 µM, the Activity [5] was “Toxic” and the AUC [6] was 504000 ng·h/mL. The Activity [7] was “Non-Toxic”, the Activity [8] was < 20% and the Cmax [9] was 3360 ng/mL. The half-life [10] was 2.82 h, the IC50 [11] was > 52 µM and the Activity [12] was “Non-Toxic”. The Kp at 24 h [13] was 1.17, the Tmax [14] was 0.9 h and the Activity [15] was “Non-Toxic”. The Activity [16] was “Toxic”, the AUC(0-t) at 24 h [17] was 81700 ng·h/mL and the Vdss [18] was 0.31 L/kg. It also gave an AUC [19] of 357000 ng·h/mL, an IC50 [20] of 2.78 µM and a Cmax [21] of 17200 ng/mL. The Activity [22] was “Toxic”, the Activity [23] was “Non-Toxic” and the half-life [24] was 2.84 h. The MTD [25] was 1000 mg/kg, the Cmax [26] was 145000 ng/mL and the Activity [27] was “Non-Toxic”. The IC50 [28] was > 50 µM, the half-life at 1 µM [29] was 21.1 h and the IC50 [30] was 0.031 µM. For the same molecule, the Activity [31] was “Toxic” and the Activity [32] was “Toxic”.
